Measured values: article PMC5797642 (Frontiers in Molecular Neuroscience, 2018)

Assays:
[1] = biological target: T1, Kv12.1 (Elk1) (Homo sapiens, UniProt Q96L42); assay: whole-cell patch clamp; format: cell-based; settings: weak inhibitor; 100 mM; n = 9; CHO cells, room temperature
T1 construct: gene KCNH8; full-length channel from pcDNA3.1-IRES-eGFP, transient expression in CHO dhFR- cells
T1 sequence (Q96L42 1-1107): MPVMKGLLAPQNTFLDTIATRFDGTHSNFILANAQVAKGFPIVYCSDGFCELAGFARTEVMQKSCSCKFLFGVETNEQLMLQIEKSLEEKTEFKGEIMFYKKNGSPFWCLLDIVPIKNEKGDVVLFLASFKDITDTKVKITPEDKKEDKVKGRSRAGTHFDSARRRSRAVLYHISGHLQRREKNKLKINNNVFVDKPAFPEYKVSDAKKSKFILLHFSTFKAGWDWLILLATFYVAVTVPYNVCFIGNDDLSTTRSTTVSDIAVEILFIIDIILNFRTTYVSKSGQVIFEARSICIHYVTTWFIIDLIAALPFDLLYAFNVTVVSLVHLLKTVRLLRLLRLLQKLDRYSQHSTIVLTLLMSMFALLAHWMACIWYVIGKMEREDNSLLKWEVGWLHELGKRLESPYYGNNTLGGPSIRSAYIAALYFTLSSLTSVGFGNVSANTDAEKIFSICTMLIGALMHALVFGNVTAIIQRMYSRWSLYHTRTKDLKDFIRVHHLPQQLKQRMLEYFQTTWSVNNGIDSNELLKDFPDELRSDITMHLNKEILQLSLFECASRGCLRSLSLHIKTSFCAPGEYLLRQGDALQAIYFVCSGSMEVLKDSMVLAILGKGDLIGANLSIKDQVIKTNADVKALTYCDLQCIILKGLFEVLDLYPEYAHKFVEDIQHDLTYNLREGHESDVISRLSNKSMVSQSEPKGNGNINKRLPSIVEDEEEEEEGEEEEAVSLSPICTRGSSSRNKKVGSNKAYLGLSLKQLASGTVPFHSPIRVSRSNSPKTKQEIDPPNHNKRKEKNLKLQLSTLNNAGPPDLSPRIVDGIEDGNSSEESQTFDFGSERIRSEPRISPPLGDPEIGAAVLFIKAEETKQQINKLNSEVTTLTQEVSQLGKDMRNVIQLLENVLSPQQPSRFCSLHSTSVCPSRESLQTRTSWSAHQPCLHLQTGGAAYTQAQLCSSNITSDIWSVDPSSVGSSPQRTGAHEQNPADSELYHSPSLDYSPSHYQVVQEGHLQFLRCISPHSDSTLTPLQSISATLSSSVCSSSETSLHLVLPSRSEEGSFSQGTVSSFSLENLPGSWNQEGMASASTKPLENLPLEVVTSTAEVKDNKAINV

[2] = biological target: T1, Kv12.1 (Elk1); assay: whole-cell patch clamp, steady-state outward current at […] mV; format: cell-based; settings: activator, pH 7.4, CHO cells, room temperature

I100mM TEA/IStart [1] | SMILES | % potentiation at 3 mM [2]
0.83 ± 0.01 | CC[N+](CC)(CC)CC [TEA, tetraethylammonium] | –
– | Nc1cccnc1 [3-AP, 3-aminopyridine] | ~ 7%
